# Data published in patent US10088479B2, “Biomarker and uses thereof” (ISIS INNOVATION LIMITED, priority 2014, dated 2018).
# Where no end group is shown, it is not given here. [ ]: non-standard residue; d: D form. Cit = NC(=O)NCCC[C@H](N)C(=O)O
# Tests used:
# human macrophages = assay: FBG or LPS induced cytokine synthesis in human macrophages after pre-incubation with FBG peptides; format: cell-based; details: pre-incubation with 20 μM peptide, 24 h; for FBG mediated cytokine synthesis: then 1 μM whole FBG
# Procedure: (§1) Macrophages were cultured at 1×10^5 cells/well in RPMI 1640 containing 5% (v/v) FBS and 100 U/ml penicillin/streptomycin in 96-well tissue culture plates for 24 h before stimulation. Cells were incubated for 24 h at 37° C. with no addition, 1.0 μM FBG, 1 ng/ml LPS or 1 or 20 μM FBG peptide. Where stated, cells were pre-incubated with 20 μM FBG peptides for 15 min.
# (§2) Supernatants were examined for the presence of the cytokines TNF-α, IL-6, and IL-8 by enzyme-linked immunosorbent assay (ELISA) according to the manufacturer's instructions (R&D systems). Absorbance was read on a spectrophotometric ELISA plate reader (Labsystems Multiscan Biochromic, Vantaa, Finland) and analyzed using the Ascent software program (Thermo Labsystems, Altrincham, UK).
# [1] = system: primary human macrophages; assay: Cytokine synthesis in primary human macrophages stimulated with FBG peptides; format: cell-based; details: 1 or 20 μM peptide, 24 h
# Procedure: After incubation the tissue was pipetted through a nylon mesh into a sterile beaker. The cells were then washed three times in complete medium (RPMI 1640 supplemented with 10% FCS). RA synovial fibroblasts were isolated from the mixed population of RA membrane cells by selection in DMEM (Bio-Whittaker) supplemented with 10% FBS, […], 100 U/ml penicillin, and streptomycin. Human monocytes were isolated from peripheral blood (London Blood Bank) and macrophages were derived from monocytes after differentiation for 4 days with 100 ng/ml of M-CSF.
# as §1, §2
# [2] = system: RA synovial membrane cultures; assay: Blockade of spontaneous cytokine synthesis in RA synovial membrane cultures by FBG peptides; format: cell-based, human; details: 24 h; for inhibition of cytokine synthesis at the highest concentrations: RA membrane cultures, peptide 25, 100 or 250 μM, highest concentration; for TNF and IL8 synthesis (spontaneous): RA synovial membrane cultures, 100 μM peptide
# Procedure: RA membrane cells (representing a mixed population of all synovial cell types) were isolated from synovial membranes obtained from patients undergoing joint replacement surgery (Brennan (1989)). Synovial membrane tissue was digested in RPMI 1640 (GIBCO) containing 5% fetal calf serum (FCS) (GIBCO), 5 mg/ml collagenase type IV (Sigma) and 0 15 mg/ml DNAse type I (Sigma) and incubated at 37° C. for 2 h.
# Immediately after isolation, RA membrane cells were cultured at 1×10^5 cells/well in RPMI 1640 containing 10% (v/v) FBS and 100 U/ml penicillin/streptomycin in 96-well tissue culture plates. Cells were incubated for 24 h at 37° C. with no addition, buffer control (PBS, 1% BSA, 0.01% NaN3), or with 25 μm, 100 μM or 250 μM of each FBG spanning peptide.
# as §2
# RA sera = assay: IgG response to cyclic citrullinated FBG peptides in RA and control sera; format: binding, human; details: RA sera (n=20) vs control sera (n=20)
# Excerpt: (A) Peptides with sequences corresponding to the amino acid sequence of FBG were designed, with the addition of cysteine residues at the amino and carboxy termini and the exchange of arginine for citrulline residues at positions identified by LC-MS/MS. (B) IgG response to citrullinated FBG peptides and arginine containing control peptides in patients with rheumatoid arthritis (RA; n=20) and healthy controls (n=20). The 95th percentile of the control sera was used to determine positivity (dashed line). Mann-Whitney U test was used to calculate p values for differences between groups (n.s.=no significant difference, *=p<0.05 and **=p<0.01, ***=p<0.001, […]).
# With reference to FIG. 31, the antibody response in 20 RA and 20 control sera to 6 cyclic FBG peptides, encompassing citrulline residues was evaluated.
# [3] = system: human dermal fibroblasts (HDF); assay: Cell adhesion to coated FBG, crystal violet; format: cell-based; details: coated wells, 45 minutes
# Procedure: (§3) (A) The sequence identified to bind integrin αvβ3 is shown in white (Yokoyama et al., 2000). Within this sequence two Arginines (shown in black) were identified to be citrullinated. (B) Wells of a 96 well plate were coated with different concentrations of FBG, citrullinated FBG (cFBG), FBG incubated in buffer without Calcium (FBG —Ca^2+), or FBG incubated without PAD (FBG —PAD). As a positive control wells were coated with Fibronectin (FN) (1 ug/ml), and coating with BSA (10 mg/ml) served as negative control. Plates were incubated with human dermal fibroblasts (HDF) or synovial fibroblasts from RA patients (RAF) for 45 minutes and adhesion was measured by determining absorbance of attached cells after staining with crystal violet (0.1%). Data are shown as the mean of at least four independent experiments+s.e.m., *=p<0.05, **=p<0.01.
# [4] = system: synovial fibroblasts from RA joints (RAF); assay: Cell adhesion to coated FBG, crystal violet; format: cell-based, human; details: coated wells, 45 minutes
# Procedure: as §3
# [5] = system: primary human macrophages; assay: TNF synthesis in primary human macrophages stimulated with native or citrullinated FBG; format: cell-based; details: 0.1-1.0 μM, 24 h
# Procedure: Primary human macrophages were isolated as described above and cultured at 1×10^5 cells/well in RPMI 1640 containing 5% (v/v) FBS and 100 U/ml penicillin/streptomycin in 96-well tissue culture plates for 24 h before stimulation. Cells were incubated for 24 h at 37° C. with no addition (UN), different concentrations (uM) of native FBG (nFBG) or cit FBG (cFBG) or citrullination buffer alone (CIT) or cit buffer plus PAD enzyme (CIT+PAD).
# as §2, with “TNF-α” for “TNF-α, IL-6, and IL-8”
molecule,measurement,setting,value
ELRVDLRDHGETAFAVYDKFSVGDAKTRYK [Peptide 5],FBG mediated cytokine synthesis,human macrophages,specifically blocked
same,induction of cytokine synthesis,[1],induced cytokine synthesis in a dose dependent manner
same,effect on TNF synthesis,[2]; RA membrane cells,no effect
same,maximal inhibition of IL8 synthesis,"[2]; RA membrane cells, dose dependent",81%
TIGLLYPFPKDCSQAMLNGDTTSGLYTIYL [Peptide 1],induction of cytokine synthesis,[1],induced cytokine synthesis in a dose dependent manner
WIVFLRRKNGRENFYQNWKAYAAGFGDRRE [Peptide 3],inhibition of cytokine synthesis at the highest concentrations,[2],95%
same,TNF and IL8 synthesis (spontaneous),[2],inhibited
"CEMKL-Cit-PSNF-Cit-NLEGRRKRC (CEMKL[Cit]PSNF[Cit]NLEGRRKRC; also: cyclic, closure not given here) [CIT209/214]",antibody response,RA sera,strong antibody response
"CEMKLRPSNFRNLEG-Cit-Cit-KRC (CEMKLRPSNFRNLEG[Cit][Cit]KRC; also: cyclic, closure not given here) [CIT219/220]",antibody response,RA sera,strong antibody response
WYRNCHRVNLMGRYGDNNHSQGVNWFHWKG [Peptide 8],LPS induced cytokine synthesis,human macrophages; then 1 ng/ml LPS,blocked
same,FBG mediated cytokine synthesis,human macrophages,blocked
same,inhibition of cytokine synthesis at the highest concentrations,[2],56%
same,TNF and IL8 synthesis (spontaneous),[2],inhibited
KTRYKLKVEGYSGTAGDSMAYHNGRSFST [Peptide 6],induction of cytokine synthesis,[1],induced cytokine synthesis in a dose dependent manner
"CVFLRRKNG-Cit-ENFYQNWC (CVFLRRKNG[Cit]ENFYQNWC; also: cyclic, closure not given here) [CIT55]",antibody response,RA sera,strong antibody response
"citrullinated FBG: recombinant FBG domain citrullinated in vitro with PAD (protein, non-natural residues; left off: small tags and cut ends, recombinant FBG domain citrullinated in vitro with PAD) GLLYPFPKDCSQAMLNGDTTSGLYTIYLNGDKAEALEVFCDMTSDGGGWIVFLRRKNGRENFYQNWKAYAAGFGDRREEFWLGLDNLNKITAQGQYELRVDLRDHGETAFAVYDKFSVGDAKTRYKLKVEGYSGTAGDSMAYHNGRSFSTFDKDTDSAITNCALSYKGAFWYRNCHRVNLMGRYGDNNHSQGVNWFHWKGHEHSIQFAEMKLRPSNFRNLEGRRKRA",adhesion of HDF,[3],reduces adhesion
same,adhesion of RAF,[4],reduces adhesion
same,cytokine (TNFα) synthesis compared with native FBG,[5],better at stimulating cytokine (e.g. TNFα) synthesis
